The values below come from US7208517B1, “Endothelin antagonists” (Abbott Labortories, priority 1994, dated 2007).

For experiment [1], the target named is T1, human ETA receptor (Homo sapiens, UniProt P25101).
T1 construct: expressed in transfected cells; host or cells: CHO cells, permanently transfected
T1 sequence (P25101 21-427): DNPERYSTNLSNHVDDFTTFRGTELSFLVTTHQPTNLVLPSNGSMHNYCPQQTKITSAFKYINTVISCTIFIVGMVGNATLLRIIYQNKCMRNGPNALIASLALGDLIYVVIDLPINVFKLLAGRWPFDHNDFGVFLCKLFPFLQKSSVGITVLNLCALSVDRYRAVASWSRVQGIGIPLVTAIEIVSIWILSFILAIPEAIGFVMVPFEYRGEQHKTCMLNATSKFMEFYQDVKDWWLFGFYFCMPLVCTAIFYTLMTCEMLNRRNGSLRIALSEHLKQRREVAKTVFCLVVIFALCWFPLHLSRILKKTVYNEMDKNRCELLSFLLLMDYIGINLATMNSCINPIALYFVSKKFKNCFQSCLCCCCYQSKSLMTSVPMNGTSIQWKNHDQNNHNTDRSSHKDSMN
In words: ETA/ETB selectivity: (125I)ET-1 competition binding, CHO cells transfected with human ETA receptor (hET-A). As to conditions: CHO cells transfected with human ETA receptor; 0.1 nM (125I)ET-1; read-out: hET-A IC50. The protocol: The mixture was centrifuged at 1000×g for 10 min. The supernatant was collected and centrifuged at 60,000×g for 60 min. The precipitate was resuspended in 20 mM Tris, pH 7.4 containing protease inhibitor and centrifuged again. The final membrane pellet was resuspended in 20 mM Tris, pH 7.4 containing protease inhibitors and stored at −80° C. until used. Protein content was determined by the Bio-Rad dye-binding protein assay.
Binding assays were performed in 96-well microtiter plates pretreated with 0.1% BSA. […] After incubation, unbound ligands were separated from bound ligands by a vacuum filtration method using glass-fiber filter strips in PHD cell harvesters (Cambridge Technology, Inc., MA), washing the filter strips three times with saline (1 mL). Nonspecific binding was determined in the presence of 1 μM ET-1. IC50 values are calculated using an average of at least two separate determinations.

Experiment [2] concerns the target T2, ETB receptors of porcine cerebellar tissues (pET-B) (Sus scrofa, UniProt P35463).
T2 construct: porcine cerebellar tissues (known to contain ETB receptors); from tissue; host or cells: porcine cerebellum (membranes)
T2 sequence (P35463 27-443): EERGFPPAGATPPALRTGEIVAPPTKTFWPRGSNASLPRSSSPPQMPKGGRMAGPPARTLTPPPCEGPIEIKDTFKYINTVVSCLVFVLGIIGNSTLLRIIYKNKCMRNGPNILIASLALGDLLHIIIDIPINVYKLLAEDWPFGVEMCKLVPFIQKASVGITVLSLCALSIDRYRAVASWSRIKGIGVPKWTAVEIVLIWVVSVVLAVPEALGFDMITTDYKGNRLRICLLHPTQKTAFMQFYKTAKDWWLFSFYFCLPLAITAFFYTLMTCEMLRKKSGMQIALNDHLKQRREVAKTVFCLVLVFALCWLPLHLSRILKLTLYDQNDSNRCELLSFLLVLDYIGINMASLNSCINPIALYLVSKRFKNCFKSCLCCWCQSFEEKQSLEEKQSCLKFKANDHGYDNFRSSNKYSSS
In words: ETA/ETB selectivity: (125I)ET-3 competition binding, ETB assay in porcine cerebellum membranes (pET-B). Particulars: porcine cerebellum membranes; 0.1 nM (125I)ET-3; read-out: pET-B IC50.

Experiment [3] has as its target T3, human ETB receptor (Homo sapiens, UniProt P24530).
T3 construct: expressed in transfected cells; host or cells: CHO cells, permanently transfected
T3 sequence (P24530 27-442): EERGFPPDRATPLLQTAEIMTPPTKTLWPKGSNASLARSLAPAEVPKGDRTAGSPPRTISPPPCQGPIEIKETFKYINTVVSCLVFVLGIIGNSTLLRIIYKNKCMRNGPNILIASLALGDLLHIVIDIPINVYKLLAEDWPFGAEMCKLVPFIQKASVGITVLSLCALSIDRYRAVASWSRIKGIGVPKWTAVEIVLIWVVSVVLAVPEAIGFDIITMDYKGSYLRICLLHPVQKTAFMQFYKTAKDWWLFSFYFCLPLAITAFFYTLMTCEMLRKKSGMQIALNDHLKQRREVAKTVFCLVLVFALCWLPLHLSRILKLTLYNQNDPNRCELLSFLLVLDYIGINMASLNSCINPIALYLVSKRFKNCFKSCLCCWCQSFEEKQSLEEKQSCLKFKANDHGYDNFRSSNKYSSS
Description: ETA/ETB selectivity: (125I)ET-3 competition binding, CHO cells transfected with human ETB receptor (hET-B). Particulars: CHO cells transfected with human ETB receptor; 0.1 nM (125I)ET-3; read-out: hET-B IC50. On the procedure:
MMQ cells, porcine cerebellar tissues (known to contain ETB receptors) and chinese hamster ovary cells (CHO) permanently transfected with the human ETA or ETB receptor were homogenized in 25 ml of 10 mM Hepes (pH 7.4) containing 0.25 M sucrose and a protease inhibitor [50 mM EDTA, 0.1 mM PMSF, 5 μg/ml Pepstatin A, and 0.025% Bacitracin] using a micro ultrasonic cell disrupter. The mixture was centrifuged at 1000×g for 10 min. The supernatant was collected and centrifuged at 60,000×g for 60 min. The precipitate was resuspended in 20 mM Tris, pH 7.4 containing protease inhibitor and centrifuged again. The final membrane pellet was resuspended in 20 mM Tris, pH 7.4 containing protease inhibitors and stored at −80° C. until used. Protein content was determined by the Bio-Rad dye-binding protein assay.
Binding assays were performed in 96-well microtiter plates pretreated with 0.1% BSA. Membranes prepared from cells were diluted 100 fold in Buffer B (20 mM Tris, 100 mM NaCl, 10 mM MgCl2, pH 7.4, with 0.2% BSA, 0.1 mM PMSF, 5 μg/mL Pepstatin A, 0.025% bacitracin, and 50 mM EDTA) to a final concentration of 0.2 mg/mL of protein. In competition binding studies, membranes (0.02 mg) were incubated with 0.1 nM of (^125I)ET-1 (for ETA assay in MMQ or CHO cells transfected with human ETA receptor) or (^125I)ET-3 (for ETB assay in porcine cerebellum or CHO cells transfected with human ETB receptor) in Buffer B (final volume: 0.2 mL) in the presence of increasing concentrations of the test compound for 3 hours at 25° C. After incubation, unbound ligands were separated from bound ligands by a vacuum filtration method using glass-fiber filter strips in PHD cell harvesters (Cambridge Technology, Inc., MA), washing the filter strips three times with saline (1 mL). Nonspecific binding was determined in the presence of 1 μM ET-1. IC50 values are calculated using an average of at least two separate determinations.

What is called IC50 is the concentration that gives 50% inhibition.

As for `CCCCN(CCCC)C(=O)CN1C[C@H](c2ccc3c(c2)CCO3)[C@@H](C(=O)O)[C@@H]1CC(C)(C)CCC` [compound 515], the IC50 in experiment [1] was 0.0067 µM; in experiment [2] it was above 62 µM; in experiment [3], above 100 µM.

Turning to `CCCCN(CCCC)C(=O)CN1CC(c2ccc3c(c2)OCO3)C(C(=O)O)C1CC(C)(C)CCC` (centres unmarked) [compound 503], the IC50 in experiment [1] was 0.00092 µM; in experiment [2] it was 50 µM; in experiment [3] it was 52 µM.

As for `CCCCN(CCCC)C(=O)CN1CC(c2cc(OC)c3c(c2)OCO3)C(C(=O)O)C1CC(C)(C)C1OCCO1` (centres unmarked) [compound 516], the IC50 was determined as 0.0018 µM in experiment [1], 29 µM in experiment [2] and 37 µM in experiment [3].

Consider `CCCCN(CCCC)C(=O)CN1CC(c2ccc3c(c2)OCO3)C(C(=O)O)C1CCC1CCCCO1` (centres unmarked) [compound 505], for which the IC50 was found to be 0.0057 µM in experiment [1], 60 µM in experiment [2] and 68 µM in experiment [3].

`CCCCN(C(=O)CN1CC(c2ccc3c(c2)OCO3)C(C(=O)O)C1c1ccc(OC)cc1)c1cccnc1` (centres unmarked) [compound 531]: the IC50 in experiment [1] came out at 0.00071 µM; in experiment [3] it was 0.87 µM.

Consider `CCCCN(CCCC)C(=O)CN1CC(c2ccc3c(c2)OCO3)C(C(=O)O)C1CCC1OCCO1` (centres unmarked) [compound 504], for which the half-inhibitory concentration (IC50) in experiment [1] is 0.0046 µM; in experiment [2] it was above 100 µM; in experiment [3], above 100 µM.

Turning to `CCCCN(CCCC)C(=O)CN1CC(c2ccc3c(c2)OCO3)C(C(=O)O)C1CC(C)(C)C1OCCO1` (centres unmarked) [compound 507], the figures for the IC50 in experiment [1], in experiment [2] and in experiment [3] were 0.00163 µM, above 100 µM and above 100 µM, respectively.

For `CCCON(CCC)C(=O)CN1CC(c2ccc3c(c2)OCO3)C(C(=O)O)C1c1ccc(OC)cc1` (centres unmarked) [compound 524], the IC50 is 0.00082 µM in experiment [1], 1.7 µM in experiment [2] and 0.89 µM in experiment [3].

`CCCCN(CCCC)C(=O)CN1CC(c2ccc3c(c2)OCO3)C(C(=O)O)C1CCc1ccccc1OC` (centres unmarked) [compound 517]: the concentration for half-maximal inhibition (IC50) worked out at 0.00043 µM in experiment [1], 30 µM in experiment [2] and 12 µM in experiment [3].

`CCCCN(CCCC)C(=O)CN1CC(c2ccc3c(c2)OCO3)C(C(=O)O)C1CC(C)(C)C=C(C)C` (centres unmarked) [compound 506]: the results for the IC50 in experiment [1], in experiment [2] and in experiment [3] were 0.003 µM, above 100 µM and 61 µM, respectively.

As to `CCCCN(CCCO)C(=O)CN1CC(c2ccc3c(c2)OCO3)C(C(=O)O)C1c1ccc(OC)cc1` (centres unmarked) [compound 523], the IC50 in experiment [1] worked out at 0.00033 µM; in experiment [2], 0.36 µM; in experiment [3] it was 0.29 µM.

Turning to `CCCCN(CCCC)C(=O)CN1CC(c2ccc3c(c2)OCO3)C(C(=O)O)C1COc1ccccc1OC` (centres unmarked) [compound 510], the half-maximal inhibitory concentration (IC50) in experiment [1] is 0.001 µM; in experiment [2], 35 µM; in experiment [3] it was 11 µM.

As for `CCCC(CCC)N(C(=O)CN1CC(c2cc(OC)c3c(c2)OCO3)C(C(=O)O)C1CCC1OCCO1)c1ccc(F)c(C)c1` (centres unmarked) [compound 513], the values for the half-inhibitory concentration (IC50) in experiment [1], in experiment [2] and in experiment [3] were 0.00036 µM, 8.8 µM and 14 µM, respectively.

With `CCCCN(CCCC)C(=O)CN1C[C@H](c2ccc3c(c2)OCO3)[C@@H](C(=O)O)[C@@H]1CC(C)(C)CCC` [compound 537], the values for the IC50 in experiment [1], in experiment [2] and in experiment [3] were 0.00023 µM, 5.9 µM and 1.9 µM, respectively.

In the case of `CCCCN(CCCC)C(=O)CN1CC(c2cc(OC)c3c(c2)OCO3)C(C(=O)O)C1CCC1OCCO1` (centres unmarked) [compound 509], the IC50 in experiment [1] amounted to 0.00051 µM; in experiment [2] it was 30 µM; in experiment [3], 23 µM.
